Source: ChEMBL document CHEMBL1157539, “Thousands of chemical starting points for antimalarial lead identification” (Nature, 2010)

Tested on: Plasmodium falciparum
Assay: GSK_TCMDC: Inhibition of Plasmodium falciparum 3D7 in whole erythrocytes, using parasite LDH activity as an index of growth.
Type: functional, organism-based
Settings: Plasmodium falciparum, 3D7

Structure (SMILES) | XC50
CCN(CC)CCN(Cc1ccc(-c2ccc(C(F)(F)F)cc2)cc1)C(=O)Cn1cc(CCCCc2cccc(F)c2F)c(=O)c2ccccc21 | 0.883 µM
OCCNc1nc(Nc2ccccc2)nc2ccccc12 | 0.128 µM
Cc1ccc(F)c(OCC2CCN(c3ncc(C(=O)NC4CC4)cc3Cl)CC2)c1 | 0.902 µM
NC(=O)c1cccc(CN2Cc3ccccc3OC3(CCN(Cc4c[nH]c5cnccc45)CC3)C2)c1 | 1.06 µM
CC(CCc1ccccc1)NCC(O)c1ccc2c3c(cccc13)C(=O)N2C (stereo not drawn) | 0.812 µM
COc1cccc(COCC(O)CN(CCc2ccccn2)C(=O)c2ccccc2F)c1 (stereo not drawn) | 0.825 µM
Cc1[nH]c(C)c(-c2ccc(-c3ccc(OC(F)(F)F)cc3)cc2)c(=O)c1Cl | 0.0354 µM
O=C(Nc1ccc(Cn2ncc(N3CCCNCC3)c(Cl)c2=O)cc1)Nc1ccc(C(F)(F)F)cc1 | 0.731 µM
Cc1cccc(N2CCN(C3CCC(NC(=O)c4cc5ccccc5[nH]4)CC3)CC2)c1C (stereo not drawn) | 0.609 µM
COC(=O)c1ccc(OCC(C)NCC(O)c2cccc(C(F)(F)F)c2)cc1 (stereo not drawn) | 0.838 µM
COc1ccc(OCc2ccccn2)c(C2CCN(CCCCNC(=O)c3ccc(NC(=O)c4ccc(Cl)cc4)cc3)CC2)c1 | 0.764 µM
CC(C)CN(C)Cc1ccc(-c2ccc(-c3nc4ccccc4[nH]3)s2)cc1 | 0.752 µM
N#Cc1ccc(CCNc2nccc(-c3cccc(CN4CCNCC4)c3)n2)cc1 | 1.25 µM
CC(C)NCc1ccc(-c2ccc(NS(=O)(=O)c3cccc4cccnc34)cc2)cc1 | 0.807 µM
COc1ccc2nccc([C@@H](O)CN3CCC(NCCOc4ccc(F)cc4F)CC3)c2c1 | 0.141 µM
CC(=O)Nc1ccc(OCCCN(Cc2ccccc2C(F)(F)F)c2ccc(C(F)(F)F)c(C#N)c2)c(Cl)c1 | 1.45 µM
CCCN1CCN(CCCCNc2c3ccccc3nc3ccccc23)CC1 | 0.409 µM
O=C(NCc1cccc(C(F)(F)F)c1)[C@@H]1CCCN1C(=O)c1ccc(O)c(-c2ccc(Cl)c(Cl)c2)c1 | 0.787 µM
CC[C@H]1CN2CC[C@H]1C[C@H]2[C@H](O)c1cc(N2CCCC(C(=O)N(CC)CC)C2)nc2ccc(OC)cc12 (stereo partly drawn) | 0.0731 µM
CCOc1ccc2[nH]c(C)cc(=NN=Cc3ccccc3Cl)c2c1 | 0.191 µM
COc1c(C2CCN(CCCCNC(=O)c3cc(-c4ccc(Cl)cc4)sc3C)CC2)ccc2c1CCCC2 | 0.629 µM
Cc1cccc(-c2cccc(CNc3nc(NCCc4ccc(O)cc4)nc(N4CCNCC4)n3)c2)c1 | 1.19 µM
CNCCNCc1cccc(-c2cccc(-c3nc4cccc(C)c4[nH]3)c2)c1 | 0.766 µM

Structure (SMILES) | XC50
COc1ccccc1/C=C/C(=O)N(C)C1CCN(CCCCCNC(=O)/C=C/c2ccc(Cl)c(Cl)c2)CC1 | 0.438 µM
COc1ccccc1-c1csc(C(=O)NCC2CCN(Cc3ccc(C(C)(C)C)cc3)C2)c1 (stereo not drawn) | 1.11 µM
O=C(/C=C/c1ccc(Cl)c(Cl)c1)NCCCCCN1CCCN(C(=O)Nc2cccc(C(F)(F)F)c2)CC1 | 0.866 µM
CC(C)COc1ccc(Cl)cc1Cc1ccc(-c2nc3ccc(Br)cc3[nH]2)o1 | 1.4 µM
CC(=O)N1CCC(C(=O)Nc2ccc(-c3cccc(-c4nc5cccc(C)c5[nH]4)c3)cc2)CC1 | 0.313 µM
CC(C)CNCc1ccc(-c2cccc(CN(C(=O)NCCc3ccccc3)C3CCN(Cc4ccccc4)CC3)c2)cc1 | 0.579 µM
CCc1ccc(Cc2cnc3nc(N)nc(N)c3c2C)cc1 | 0.202 µM
OCCCCCCNc1ccnc2[nH]c3ccc(I)cc3c12 | 1.07 µM
Cc1cc(OCC2CCCN(c3ncc(C(=O)NC4CC4)cc3Cl)C2)ccc1F (stereo not drawn) | 1.49 µM
CCOc1c(Cl)cc(Cl)cc1CNCCCNc1nc2ccccc2[nH]1 | 0.831 µM
c1cc(CNc2ncc(-c3ccsc3)c(-c3nccs3)n2)ccn1 | 0.358 µM
O=C(Nc1ccc(Br)cc1)c1cc(Br)ccc1NS(=O)(=O)c1ccc(C(F)(F)F)cc1 | 0.18 µM
Cc1cc(O)c(-c2cc(C(=O)Nc3cccnc3)[nH]n2)cc1C | 0.772 µM
O=C(C=Cc1cccs1)N(CCCn1ccnc1)c1nc2ccc(F)cc2s1 | 1.6 µM
COc1ccc(-n2nc(C(=O)NCc3ccccc3OC)c3ccccc3c2=O)cc1 | 0.217 µM
CCC(C)c1cccc(C(C)CC)c1OCCCON1C(N)=NC(N)=NC1(C)C (stereo not drawn) | 0.02 µM
CC1(C)[C@H]2CC[C@@H](CNc3nc(NCCc4c[nH]cn4)nc(NCc4cc(F)ccc4F)n3)[C@@H]1C2 | 0.311 µM
Cc1nnsc1C(=O)Nc1cccc(-c2ccc(-c3nc4cc(F)ccc4[nH]3)cc2)c1 | 0.0962 µM
CN1CCC(NCc2ccc(-c3ccc(S(=O)(=O)NCc4ccccc4)cc3)cc2)CC1 | 0.832 µM
COc1ccc2nccc([C@@H](O)CN3CCC(NCCOc4cccc(C(F)(F)F)c4)CC3)c2c1 | 0.159 µM
O=C(N[C@@H](Cc1ccccc1)C(=O)NCCN1CCCCC1)c1ccc(O)c(-c2ccc(Cl)c(Cl)c2)c1 | 1.52 µM
CC(C)Cn1cc(C2CCN(CCN3CCC(CNC(=O)c4ccc(-c5ccc(C(F)(F)F)cc5)cc4)CC3)CC2)c2ccccc21 | 0.753 µM
COc1ccc(-c2cccc(NC(=O)c3ccc(C#N)cc3)c2)cc1CN(C)CCN(C)C | 0.0747 µM

Structure (SMILES) | XC50
CCN(CCS(C)(=O)=O)Cc1ccc(-c2ccc3ncnc(Nc4ccc(OCc5cccc(F)c5)c(Cl)c4)c3c2)o1 | 0.608 µM
Oc1ccc(CCNc2nc(N/N=C/C=C/c3ccc(Cl)cc3)nc(N3CCNCC3)n2)cc1 | 0.779 µM
C=C1C[C@@H](n2cnc3c(NC(=O)c4ccccc4)ncnc32)[C@@H](F)[C@@H]1OC(c1ccccc1)(c1ccccc1)c1ccccc1 | 0.145 µM
O=[N+]([O-])c1ccc(-n2nc(Cc3ccccc3)n(Cc3cccc(F)c3)c2=S)c(C(F)(F)F)c1 | 0.769 µM
COc1ccc(NC(=O)c2ccc3[nH]c(-c4ccc(Cl)cc4)cc3c2)cc1OCCN(C)C | 0.813 µM
CC(C)Cn1c2ccccc2c2nc3nc(N)nc(N)c3nc21 | 0.725 µM
CN1CCN(c2cc(-c3ccncc3)nc(-c3cccnc3)n2)CC1 | 0.809 µM
CCCCCCCSc1ccc(CC(C)NCC(O)c2cccc(Cl)c2)cc1 (stereo not drawn) | 0.178 µM
COc1cccc2cc(C(=O)N[C@@H](CC(C)C)C(=O)N[C@H](/C=N/NC(=O)N3CCN(C)CC3)CCc3ccccc3)oc12 | 0.616 µM
CCCCNC(=O)[C@H](Cc1ccccc1)NC(=O)c1ccc(O)c(-c2ccc(Cl)c(Cl)c2)c1 | 0.527 µM
CCOc1cc(OCC)c2ccccc2c1CNCCCCCCNCc1c(OCC)cc(OCC)c2ccccc12 | 0.305 µM
COc1ccc(C(=O)C2CC2CN2CC=C(c3c[nH]c4cccc(Br)c34)CC2)cc1 (stereo not drawn) | 0.935 µM
COc1ccccc1-c1cc(C(=O)N2CCN(S(=O)(=O)c3ccc(C)cc3)CC2)[nH]n1 | 1.16 µM
Cc1cc(OCCCN2CCCCC2)ccc1NC(=O)COc1ccc(Cl)cc1C(=O)c1cc(Cl)cc(C#N)c1 | 0.892 µM
COc1ccc(-c2cccc(NC(=O)c3cccc(C#N)c3)c2)cc1CN(C)CCO | 0.823 µM
CNCCNCc1cccc(-c2ccc(-c3nc4cc(C(F)(F)F)ccc4[nH]3)cc2)c1 | 0.693 µM
COCCNCc1ccc(-c2ccccc2CNC2CCN(Cc3ccccc3)CC2)cc1 | 0.975 µM
OCC1CCN(Cc2ccc(-c3cccc(-c4nc5cc(C(F)(F)F)ccc5[nH]4)c3)cc2)CC1 | 0.483 µM
O=C(NCCC1CCN(CCc2c[nH]c3ccccc23)CC1)Nc1ccc(Cl)c(Cl)c1 | 0.834 µM
COc1ccc(C=CC(=O)N2CCC(CN3CCC(c4c[nH]c5ccccc45)CC3)CC2)cc1OC | 1.07 µM
NCC1(c2nc(-c3ccc(Cl)c(O)c3)c(-c3ccncc3)[nH]2)CCCCC1 | 0.744 µM
COc1ccc(CCC(C)N2CC(N)C(c3cn(C)c4cnccc34)C2)cc1 (stereo not drawn) | 1.36 µM
